Experimental data: patent publication US9388175B2, “2-aniline-4-aryl substituted thiazole derivatives” (Janssen Pharmaceutica N.V., priority 2005, dated 2016)

Molecular target: T1, hα7-wt nAChR stably expressed in the GH4C1 cell line (Homo sapiens, UniProt P36544)
T1 construct: expressed in transfected cells
Assay: Ca2+ flux imaging (FLIPR) of PAM activity with choline as agonist
Assay type: cell-based
Conditions: efficacy relative to 100 μM choline alone (defined as 1); peak fluorescence, fluo-4AM; compounds tested 0.1 μM to 30 μM, efficacy criterion at 10 μM
Source text: Stable expression in mammalian cells in general and rat GH4C1 cells in particular, of cDNA clones encoding the human α7 wild-type sequence (hα7-wt nAChR) and in which the coding region is placed downstream of a promoter results in the appearance of functional α7 nAChRs on the surface of the mammalian cells. This technique has provided a powerful means of assessing the function of α7 wild-type protein. Given the fact that the cation permeability of the α7 nicotinic receptor preferentially favours calcium, fluorescent imaging of Ca^2+ flux through the hα7-wt nAChR stably expressed in the GH4C1 cell line was used as a first means of assaying modulator activity of the compounds of the present invention.
a) Assay Buffer • Hanks buffered saline solution (HBSS, Invitrogen, Belgium), supplemented with 10 mM HEPES (Invitrogen, Belgium), CaCl2 to a final concentration of 5 mM, 0.1% Bovine serum albumin (Sigma-Aldrich NV, Belgium), 2.5 mM probenecid (Sigma-Aldrich NV, Belgium).
b) Calcium-Sensitive Dye—Fluo-4AM • Fluo-4AM (Molecular Probes, USA) was dissolved in DMSO containing 10% Pluronic acid (Molecular Probes, USA) to give a stock solution which was aliquoted and could be stored at −20° C. until later use. On the day of the experiment Fluo-4AM stock was defrosted and diluted in DMEM/F12 (Invitrogen, Belgium) containing 2.5 mM probenicid and 0.1% BSA to give a final concentration of 2 μM.
c) 96-well Plates • BD Biocoat poly-D-lysine 96-well black/clear bottom plates (BD Biosciences, Belgium)
d) Calcium Flux Measurement • A Fluorimetric Imaging Plate Reader (FLIPR, Molecular Devices Corporation, Sunnyvale, USA) was used to measure intracellular free-calcium flux signals
Monolayers of hα7-wt nAChR-expressing cells were grown in multi-well plates, in particular black-sided, transparent bottomed 96 well plates coated with poly-D-lysine for 24 hours prior to loading with a fluorescent calcium indicator, in a particular embodiment loading with fluo-3 or fluo-4AM for up to 90 minutes, in an even more particular embodiment loading with fluo-4AM for up to 90 minutes, and in a preferred embodiment loading with fluo-4AM for 60 minutes.
In a particular embodiment, the α7 nicotinic receptor agonist was choline, a more particular embodiment choline applied at a sub-maximal concentration of 100 μM.
A control response to choline was calculated on each plate from the difference in peak fluorescence in wells receiving either choline or assay buffer alone. Compounds of the present invention were tested at a concentration range from 0.1 μM to 30 μM.
The activity ranges are defined as follows; A denotes an activity range from 1.1 till 1.5, B denotes an activity range from 1.5 till 2.0, C denotes an activity range from 2.0 till 3.0, D denotes an activity range from 3.0 till 4.5 and E denotes an efficacy from at least 4.5.

T1 sequence (P36544 23-502): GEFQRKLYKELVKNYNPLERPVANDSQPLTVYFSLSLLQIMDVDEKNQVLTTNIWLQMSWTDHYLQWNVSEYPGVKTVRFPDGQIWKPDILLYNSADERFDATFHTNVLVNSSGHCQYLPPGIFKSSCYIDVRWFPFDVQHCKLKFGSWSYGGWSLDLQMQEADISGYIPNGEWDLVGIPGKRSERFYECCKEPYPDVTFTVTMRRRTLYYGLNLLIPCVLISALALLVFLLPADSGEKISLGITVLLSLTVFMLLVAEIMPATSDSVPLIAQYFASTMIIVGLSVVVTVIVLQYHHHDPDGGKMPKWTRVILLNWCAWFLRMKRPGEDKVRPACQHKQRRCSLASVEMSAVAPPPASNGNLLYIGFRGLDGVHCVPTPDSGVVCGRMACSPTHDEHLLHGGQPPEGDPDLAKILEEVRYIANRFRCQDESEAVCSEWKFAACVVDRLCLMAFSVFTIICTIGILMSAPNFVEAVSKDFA

| SMILES | Activity Range |
| --- | --- |
| CCCc1nc(Nc2cccc(C(F)(F)F)c2)sc1C(=O)OCC [Compound 155] | E (E denotes an efficacy from at least 4.5) |
| COc1ccc(Nc2nc(-c3ccccc3)c(Br)s2)cc1 [Compound 93] | E (E denotes an efficacy from at least 4.5) |
| Clc1ccc(Nc2nc(-c3ccccc3Cl)cs2)c(Cl)c1 [Compound 37] | C (C denotes an activity range from 2.0 till 3.0) |
| Nc1cncc(-c2csc(Nc3ccc(F)c(C(F)(F)F)c3)n2)c1 [Compound 10] | A (A denotes an activity range from 1.1 till 1.5) |
| COc1ccccc1Nc1nc(-c2ccccc2Cl)cs1 [Compound 42] | B (B denotes an activity range from 1.5 till 2.0) |
| c1cn2c(-c3csc(Nc4ccc5c(c4)CCO5)n3)cnc2s1 [Compound 60] | B (B denotes an activity range from 1.5 till 2.0) |
| Cc1sc(Nc2ccc(Br)cc2)nc1-c1cccnc1 [Compound 137] | D (D denotes an activity range from 3.0 till 4.5) |
| COc1cc(OC)c(Nc2nc(-c3ccc(F)c(F)c3)c(CC(N)=O)s2)cc1Cl [Compound 130] | E (E denotes an efficacy from at least 4.5) |
| Cc1ccc(Nc2nc(-c3ccccc3)c(C(=O)Nc3cccnc3)s2)c(C)c1 [Compound 170, 5-Thiazolecarboxamide, 2-[(2,4-dimethylphenyl)amino]-4-phenyl-N-3-pyridinyl-] | E (E denotes an efficacy from at least 4.5) |
| CCOC(=O)NCc1sc(Nc2cccc(C(F)(F)F)c2)nc1-c1cccnc1 [Compound 168] | E (E denotes an efficacy from at least 4.5) |
| OCc1sc(Nc2ccc(Cl)cc2Cl)nc1-c1ccccc1 [Compound 3] | D (D denotes an activity range from 3.0 till 4.5) |
| CCOC(=O)c1sc(Nc2ccc(OC)cc2)nc1C(F)(F)F [Compound 154] | E (E denotes an efficacy from at least 4.5) |
| COc1ccc(Nc2nc(-c3ccc4c(c3)OCCO4)c(CO)s2)c(OC)c1 [Compound 95, 4-(2,3-dihydro-1,4-benzodioxin-6-yl)-2-[(2,4-dimethoxyphenyl)amino]-5-thiazolemethanol] | E (E denotes an efficacy from at least 4.5) |
| COc1cc(OC)c(Nc2nc(-c3ccncc3)c(CO)s2)cc1Cl [int. 25] | C (C denotes an activity range from 2.0 till 3.0) |
| CSc1cccc(Nc2nc(-c3cnc4ccccn34)cs2)c1 [Compound 52] | C (C denotes an activity range from 2.0 till 3.0) |
| FC(F)(F)c1cccc(Nc2nc(-c3ccccc3)cs2)c1 [int. 1] | C (C denotes an activity range from 2.0 till 3.0) |
| COCCc1nc(Nc2cc(Cl)ccc2Cl)sc1C(=O)OC [Compound 157] | E (E denotes an efficacy from at least 4.5) |
| Cc1sc(Nc2cccc(C(F)(F)F)c2)nc1-c1cccnc1 [Compound 101] | D (D denotes an activity range from 3.0 till 4.5) |
| CC(C)NC(=O)Cc1sc(Nc2cc(Cl)ccc2Cl)nc1-c1ccncc1 [Compound 161, 2-[(2,5-dichlorophenyl)amino]-N-(1-methylethyl)-4-(4-pyridinyl)-5-thiazoleacetamide] | E (E denotes an efficacy from at least 4.5) |
| Cc1ccc(Nc2nc(-c3cccnc3)c(C)s2)cc1 [Compound 138] | E (E denotes an efficacy from at least 4.5) |
| N#CCc1sc(Nc2cccc(C(F)(F)F)c2)nc1-c1ccccc1 [int. 3, [4-Phenyl-2-(3-trifluoromethyl-phenylamino)-thiazol-5-yl]-acetonitrile] | D (D denotes an activity range from 3.0 till 4.5) |
| CCOC(=O)c1sc(Nc2cc(Cl)ccc2Cl)nc1C(F)F [Compound 153] | E (E denotes an efficacy from at least 4.5) |
| COCCc1nc(Nc2cccc(C(F)(F)F)c2)sc1C(=O)OC [Compound 159] | E (E denotes an efficacy from at least 4.5) |
